Reference: ChEMBL document CHEMBL1130883, “Modeling, synthesis and biological activity of novel antifungal agents (1)” (Bioorg Med Chem Lett, 1998)
In brackets after ≈: the same amount, converted by molar mass.

What was measured:
Candida albicans [1] = assay: Compound was tested in vitro for antifungal activity against Candida albicans (CY3003); type: functional
Aspergillus fumigatus [2] = assay: Compound was tested in vitro for antifungal activity against Aspergillus fumigatus (CF1004); type: functional
Cryptococcus neoformans = assay: Compound was tested in vitro for antifungal activity against Cryptococcus neoformans (CY1057)
[3] = target: Lanosterol 14-alpha demethylase (Candida albicans) (UniProt P10613); assay: In vitro inhibition of cytochrome P450 lanosterol C14 demethylase in Candida albicans CY1005
Candida albicans [4] = assay: Compound was tested in vitro for antifungal activity against Cryptococcus neoformans (CY1057) in experiment 2; type: functional
Aspergillus fumigatus [5] = assay: Compound was tested in vitro for antifungal activity against Aspergillus fumigatus (CF1004) in experiment 2; type: functional

Sequence of Lanosterol 14-alpha demethylase (Candida albicans) (P10613 whole entry, looked up): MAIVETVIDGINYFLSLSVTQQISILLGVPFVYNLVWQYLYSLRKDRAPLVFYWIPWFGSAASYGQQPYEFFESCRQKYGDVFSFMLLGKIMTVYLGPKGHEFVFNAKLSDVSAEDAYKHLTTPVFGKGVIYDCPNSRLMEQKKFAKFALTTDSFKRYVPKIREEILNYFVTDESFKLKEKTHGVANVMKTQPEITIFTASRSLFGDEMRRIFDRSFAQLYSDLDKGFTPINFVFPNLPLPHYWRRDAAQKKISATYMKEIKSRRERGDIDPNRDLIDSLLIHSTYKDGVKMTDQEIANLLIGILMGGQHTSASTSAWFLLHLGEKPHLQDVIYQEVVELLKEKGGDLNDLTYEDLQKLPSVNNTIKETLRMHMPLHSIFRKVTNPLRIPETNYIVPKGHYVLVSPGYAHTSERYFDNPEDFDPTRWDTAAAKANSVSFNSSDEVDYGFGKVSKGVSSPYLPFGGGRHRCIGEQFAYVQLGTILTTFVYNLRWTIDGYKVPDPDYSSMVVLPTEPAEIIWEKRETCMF

| SMILES | IC80 (Candida albicans [1]) [µg/mL] | IC80 (Aspergillus fumigatus [2]) [µg/mL] | IC80 (Cryptococcus neoformans) [µg/mL] | IC50 [3] [µg/mL] | IC80 (Candida albicans [4]) [µg/mL] | IC80 (Aspergillus fumigatus [5]) [µg/mL] |
| --- | --- | --- | --- | --- | --- | --- |
| CCc1ccc(CC[C@@H]2CCC(C)(C)/C(=N/OC)[C@H]2Cn2cncn2)cc1 | 0.024 (≈ 0.0651 µM) | 0.064 (≈ 0.174 µM) | 0.48 (≈ 1.3 µM) |  |  |  |
| CO/N=C1\[C@@H](Cn2cncn2)[C@H](COc2ccc(OC(F)(F)F)cc2)CCC1(C)C | 0.12 (≈ 0.281 µM) | 0.4 (≈ 0.938 µM) | 7.6 (≈ 17.8 µM) |  |  |  |
| CC1(C)CC[C@@H](COc2ccc(OC(F)(F)F)cc2)[C@H](Cn2cncn2)/C1=N\O | 0.35 (≈ 0.849 µM) | 0.17 (≈ 0.412 µM) | > 200 |  |  |  |
| COC1[C@@H](Cn2cncn2)[C@H](COc2ccc(OC(F)(F)F)cc2)CCC1(C)C (stereo partly specified) | 0.18 (≈ 0.435 µM) | 56 (≈ 135 µM) | 0.51 (≈ 1.23 µM) |  |  |  |
| CC1(C)CC[C@@H](COc2ccc(OC(F)(F)F)cc2)[C@H](Cn2cncn2)C1OCCO (stereo partly specified) | 0.39 (≈ 0.879 µM) | 110 (≈ 248 µM) | 5.2 (≈ 11.7 µM) |  |  |  |
| CC(=O)c1ccc(CC[C@@H]2CCC(C)(C)/C(=N/O)[C@H]2Cn2cncn2)cc1 | > 200 | 60 (≈ 163 µM) | > 200 |  |  |  |
| CCc1ccc(CC[C@@H]2CCC(C)(C)C(OCCO)[C@H]2Cn2cncn2)cc1 (stereo partly specified) | 0.00086 (≈ 0.00223 µM) | > 200 | 0.36 (≈ 0.934 µM) |  |  |  |
| CCc1ccc(CC[C@@H]2CCC(C)(C)/C(=N/O)[C@H]2Cn2cncn2)cc1 | 0.023 (≈ 0.0649 µM) | 0.0011 (≈ 0.0031 µM) | 130 (≈ 367 µM) |  |  |  |
| CC(O)c1ccc(CC[C@@H]2CCC(C)(C)/C(=N/O)[C@H]2Cn2cncn2)cc1 (stereo partly specified) | > 200 | 21 (≈ 56.7 µM) | > 200 |  |  |  |
| CCc1ccc(CC[C@@H]2CCC(C)(C)[C@H](OC)[C@H]2Cn2cncn2)cc1 | 0.0042 (≈ 0.0118 µM) | > 200 | 0.74 (≈ 2.08 µM) | 0.01 (≈ 0.0281 µM) |  |  |
| OC(Cn1cncn1)(Cn1cncn1)c1ccc(F)cc1F [FLUCONAZOLE] | 1.3 (≈ 4.24 µM) | 150 (≈ 490 µM) | 6.2 (≈ 20.2 µM) |  | 2.6 (≈ 8.49 µM) | > 200 |
